Measurements taken from the kinase profiling compilation of Christmann-Franck et al. (2016).
Values joined by “and” are separate entries in the source; they are usually repeats but may differ in a detail not shown here. Equal values may be shown once.

Experiments:
Test in all cases: radiometric filter-binding kinase assay, Kinase HotSpot
Conditions in all cases: compound 0.5 µM; ATP 10 µM
MARK1 (human) = MARK1 (human) (UniProt Q9P0L2)
ACVRL1 (human) = ACVRL1 (human) (UniProt P37023)
MAP3K3 (human) = MAP3K3 (human) (UniProt Q99759)
LYN (human) = LYN (human) (UniProt P07948)
Chain of LYN (human) (P07948 whole entry, looked up): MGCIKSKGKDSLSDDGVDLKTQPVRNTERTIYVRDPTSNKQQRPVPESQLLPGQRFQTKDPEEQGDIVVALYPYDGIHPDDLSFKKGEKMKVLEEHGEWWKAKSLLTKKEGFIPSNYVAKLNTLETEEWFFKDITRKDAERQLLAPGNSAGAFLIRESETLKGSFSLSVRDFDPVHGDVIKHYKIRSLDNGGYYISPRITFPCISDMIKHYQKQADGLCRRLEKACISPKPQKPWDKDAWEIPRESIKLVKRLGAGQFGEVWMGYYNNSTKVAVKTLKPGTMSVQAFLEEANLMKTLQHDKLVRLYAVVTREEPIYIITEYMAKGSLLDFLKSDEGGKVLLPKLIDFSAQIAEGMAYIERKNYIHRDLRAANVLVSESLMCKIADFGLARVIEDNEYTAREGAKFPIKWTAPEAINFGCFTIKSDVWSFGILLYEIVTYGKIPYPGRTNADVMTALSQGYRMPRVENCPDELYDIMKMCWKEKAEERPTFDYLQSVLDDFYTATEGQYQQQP

TNK2 (human) = TNK2 (human) (UniProt Q07912)
GRK4 (human) = GRK4 (human) (UniProt P32298)
EPHA5 (human) = EPHA5 (human) (UniProt P54756)
CDK1 CCNA2 (human) = CDK1 CCNA2 (human) (UniProt P06493+P20248)
LIMK1 (human) = LIMK1 (human) (UniProt P53667)
IKBKE (human) = IKBKE (human) (UniProt Q14164)
BLK (human) = BLK (human) (UniProt P51451)
Chain of BLK (human) (P51451 whole entry, looked up): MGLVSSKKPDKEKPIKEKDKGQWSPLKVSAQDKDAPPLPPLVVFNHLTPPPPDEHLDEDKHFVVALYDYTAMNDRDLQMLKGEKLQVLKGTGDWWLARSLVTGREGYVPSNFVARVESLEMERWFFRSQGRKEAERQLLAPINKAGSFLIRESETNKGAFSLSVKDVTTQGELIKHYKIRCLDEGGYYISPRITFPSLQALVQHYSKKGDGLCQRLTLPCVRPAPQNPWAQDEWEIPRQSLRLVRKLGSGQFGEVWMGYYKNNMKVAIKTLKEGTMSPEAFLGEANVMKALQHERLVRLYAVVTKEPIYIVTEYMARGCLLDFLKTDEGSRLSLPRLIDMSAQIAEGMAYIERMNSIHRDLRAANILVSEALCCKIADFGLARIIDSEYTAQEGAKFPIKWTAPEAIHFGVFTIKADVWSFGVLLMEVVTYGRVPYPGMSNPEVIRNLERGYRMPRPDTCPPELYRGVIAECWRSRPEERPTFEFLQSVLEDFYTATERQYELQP

STK4 (human) = STK4 (human) (UniProt Q13043)
PRKCB1 (human) = PRKCB1 (human) (UniProt P05771)
Chain of PRKCB1 (human) (P05771 whole entry, looked up): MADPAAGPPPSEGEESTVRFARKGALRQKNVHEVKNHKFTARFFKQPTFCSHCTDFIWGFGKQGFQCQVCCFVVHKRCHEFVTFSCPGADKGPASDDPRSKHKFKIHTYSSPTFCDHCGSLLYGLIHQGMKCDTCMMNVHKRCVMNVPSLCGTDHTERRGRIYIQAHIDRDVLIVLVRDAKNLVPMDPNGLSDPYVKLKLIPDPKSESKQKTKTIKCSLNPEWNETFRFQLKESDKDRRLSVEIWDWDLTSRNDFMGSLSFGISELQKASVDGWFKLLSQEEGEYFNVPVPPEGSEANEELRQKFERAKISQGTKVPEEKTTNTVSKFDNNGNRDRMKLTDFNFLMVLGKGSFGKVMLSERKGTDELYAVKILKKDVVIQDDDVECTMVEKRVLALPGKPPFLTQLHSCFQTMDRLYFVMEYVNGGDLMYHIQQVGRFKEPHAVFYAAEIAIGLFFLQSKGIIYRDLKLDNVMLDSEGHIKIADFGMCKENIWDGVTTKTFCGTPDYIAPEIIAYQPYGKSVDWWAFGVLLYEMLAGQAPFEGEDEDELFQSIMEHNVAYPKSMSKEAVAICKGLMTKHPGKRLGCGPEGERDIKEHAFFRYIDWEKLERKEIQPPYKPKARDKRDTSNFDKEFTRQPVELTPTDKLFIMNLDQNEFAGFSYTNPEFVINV

MARK2 (human) = MARK2 (human) (UniProt Q7KZI7)
PHKG2 (human) = PHKG2 (human) (UniProt P15735)
TAOK1 (human) = TAOK1 (human) (UniProt Q7L7X3)
INSR (human) = INSR (human) (UniProt P06213)
DAPK2 (human) = DAPK2 (human) (UniProt Q9UIK4)
NEK3 (human) = NEK3 (human) (UniProt P51956)
STK11 (human) = STK11 (human) (UniProt Q15831)
Chain of STK11 (human) (Q15831 whole entry, looked up): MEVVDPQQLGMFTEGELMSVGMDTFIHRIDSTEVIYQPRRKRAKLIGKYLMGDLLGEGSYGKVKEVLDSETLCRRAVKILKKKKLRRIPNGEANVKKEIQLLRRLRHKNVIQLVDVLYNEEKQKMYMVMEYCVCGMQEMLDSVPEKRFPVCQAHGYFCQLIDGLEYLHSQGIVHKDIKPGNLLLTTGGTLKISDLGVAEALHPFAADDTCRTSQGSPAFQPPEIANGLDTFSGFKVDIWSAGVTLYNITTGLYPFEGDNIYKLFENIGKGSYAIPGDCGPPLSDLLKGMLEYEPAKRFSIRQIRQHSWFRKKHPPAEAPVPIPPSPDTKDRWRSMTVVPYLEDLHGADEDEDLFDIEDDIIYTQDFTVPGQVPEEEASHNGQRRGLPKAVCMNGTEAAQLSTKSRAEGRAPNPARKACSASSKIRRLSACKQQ

PRKCG (human) = PRKCG (human) (UniProt P05129)
NEK1 (human) = NEK1 (human) (UniProt Q96PY6)
Chain of NEK1 (human) (Q96PY6 whole entry, looked up): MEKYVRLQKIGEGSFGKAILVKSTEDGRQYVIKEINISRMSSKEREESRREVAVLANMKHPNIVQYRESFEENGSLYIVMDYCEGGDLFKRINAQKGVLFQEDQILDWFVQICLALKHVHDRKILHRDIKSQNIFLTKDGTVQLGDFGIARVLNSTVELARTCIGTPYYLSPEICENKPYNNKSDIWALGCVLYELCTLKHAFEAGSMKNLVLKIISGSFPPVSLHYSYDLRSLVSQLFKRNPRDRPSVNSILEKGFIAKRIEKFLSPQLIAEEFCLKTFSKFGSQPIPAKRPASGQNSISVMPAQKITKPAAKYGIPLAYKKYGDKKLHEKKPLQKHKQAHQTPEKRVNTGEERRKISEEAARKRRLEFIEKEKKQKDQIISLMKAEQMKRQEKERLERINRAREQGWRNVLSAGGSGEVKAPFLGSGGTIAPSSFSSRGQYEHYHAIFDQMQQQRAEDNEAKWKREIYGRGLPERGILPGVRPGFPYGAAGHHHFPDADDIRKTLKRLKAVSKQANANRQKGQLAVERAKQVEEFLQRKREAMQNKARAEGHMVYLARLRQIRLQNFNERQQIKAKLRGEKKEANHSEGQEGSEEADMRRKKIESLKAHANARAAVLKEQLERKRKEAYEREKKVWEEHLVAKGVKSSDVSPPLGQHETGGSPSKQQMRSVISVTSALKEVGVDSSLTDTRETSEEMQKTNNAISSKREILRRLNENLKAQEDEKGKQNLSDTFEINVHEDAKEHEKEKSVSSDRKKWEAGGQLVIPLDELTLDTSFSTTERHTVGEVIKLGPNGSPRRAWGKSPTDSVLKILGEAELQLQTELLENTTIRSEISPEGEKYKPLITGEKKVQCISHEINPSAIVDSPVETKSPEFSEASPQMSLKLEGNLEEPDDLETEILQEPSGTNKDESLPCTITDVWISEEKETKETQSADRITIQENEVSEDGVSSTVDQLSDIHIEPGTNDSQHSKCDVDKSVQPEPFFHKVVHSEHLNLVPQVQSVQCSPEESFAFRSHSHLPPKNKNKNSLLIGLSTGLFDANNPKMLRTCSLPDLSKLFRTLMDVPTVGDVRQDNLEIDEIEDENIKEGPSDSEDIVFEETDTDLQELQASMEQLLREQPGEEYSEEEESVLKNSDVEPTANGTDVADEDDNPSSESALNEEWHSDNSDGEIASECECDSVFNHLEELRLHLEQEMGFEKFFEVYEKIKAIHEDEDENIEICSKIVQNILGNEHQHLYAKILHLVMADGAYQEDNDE

GRK6 (human) = GRK6 (human) (UniProt P43250)
TSSK1B (human) = TSSK1B (human) (UniProt Q9BXA7)
NUAK2 (human) = NUAK2 (human) (UniProt Q9H093)
PAK7 (human) = PAK7 (human) (UniProt Q9P286)
DCLK2 (human) = DCLK2 (human) (UniProt Q8N568)
CAMK4 (human) = CAMK4 (human) (UniProt Q16566)
BMX (human) = BMX (human) (UniProt P51813)
LRRK2 (human) = LRRK2 (human) (UniProt Q5S007)
AURKC (human) = AURKC (human) (UniProt Q9UQB9)
PRKCE (human) = PRKCE (human) (UniProt Q02156)
Chain of PRKCE (human) (Q02156 whole entry, looked up): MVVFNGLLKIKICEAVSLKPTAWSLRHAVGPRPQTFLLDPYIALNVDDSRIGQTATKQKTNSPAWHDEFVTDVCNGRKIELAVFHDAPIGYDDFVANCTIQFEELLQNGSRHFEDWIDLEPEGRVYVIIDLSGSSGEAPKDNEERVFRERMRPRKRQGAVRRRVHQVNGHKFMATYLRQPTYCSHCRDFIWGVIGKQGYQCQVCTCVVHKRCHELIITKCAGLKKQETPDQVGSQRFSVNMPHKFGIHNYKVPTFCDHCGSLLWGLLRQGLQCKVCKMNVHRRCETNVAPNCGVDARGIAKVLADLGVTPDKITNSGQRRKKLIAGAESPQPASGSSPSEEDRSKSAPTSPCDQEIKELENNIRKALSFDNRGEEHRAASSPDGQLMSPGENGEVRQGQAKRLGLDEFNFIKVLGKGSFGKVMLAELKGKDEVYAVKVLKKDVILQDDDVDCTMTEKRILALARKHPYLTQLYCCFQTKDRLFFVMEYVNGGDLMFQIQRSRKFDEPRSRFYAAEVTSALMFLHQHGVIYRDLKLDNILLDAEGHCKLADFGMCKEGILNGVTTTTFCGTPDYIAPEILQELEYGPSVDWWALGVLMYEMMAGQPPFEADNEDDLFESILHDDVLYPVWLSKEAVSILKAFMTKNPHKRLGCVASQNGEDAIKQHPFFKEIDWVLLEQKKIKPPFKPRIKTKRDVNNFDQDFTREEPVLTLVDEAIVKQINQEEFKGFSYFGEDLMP

STK10 (human) = STK10 (human) (UniProt O94804)
MAP3K9 (human) = MAP3K9 (human) (UniProt P80192)
STK25 (human) = STK25 (human) (UniProt O00506)
CDK4 CCND1 (human) = CDK4 CCND1 (human) (UniProt P24385+P11802)
CSK (human) = CSK (human) (UniProt P41240)
PTK2B (human) = PTK2B (human) (UniProt Q14289)
MAP3K11 (human) = MAP3K11 (human) (UniProt Q16584)
CDK4 CCND3 (human) = CDK4 CCND3 (human) (UniProt P30281+P11802)
DYRK4 (human) = DYRK4 (human) (UniProt Q9NR20)
PASK (human) = PASK (human) (UniProt Q96RG2)

## Clc1ccc(Nc2nnc(Cc3ccncc3)c3ccccc23)cc1
MARK1 (human)
  residual activity: 124%
ACVRL1 (human)
  residual activity: 98.5%
MAP3K3 (human)
  residual activity: 118%
LYN (human)
  residual activity: 110% and 91.8%
TNK2 (human)
  residual activity: 91.7%
GRK4 (human)
  residual activity: 91.3%
EPHA5 (human)
  residual activity: 109%
CDK1 CCNA2 (human)
  residual activity: 105%
LIMK1 (human)
  residual activity: 98.9%
IKBKE (human)
  residual activity: 95.7%
BLK (human)
  residual activity: 105%
STK4 (human)
  residual activity: 105%
PRKCB1 (human)
  residual activity: 83.5%
MARK2 (human)
  residual activity: 133%
PHKG2 (human)
  residual activity: 91.8%
TAOK1 (human)
  residual activity: 98.7%
INSR (human)
  residual activity: 99.9%
DAPK2 (human)
  residual activity: 91.7%
NEK3 (human)
  residual activity: 94.1%
STK11 (human)
  residual activity: 97.3%
PRKCG (human)
  residual activity: 93.3%
NEK1 (human)
  residual activity: 75.3%
GRK6 (human)
  residual activity: 99.9%
TSSK1B (human)
  residual activity: 94.8%
NUAK2 (human)
  residual activity: 105%
PAK7 (human)
  residual activity: 97.1%
DCLK2 (human)
  residual activity: 100%
CAMK4 (human)
  residual activity: 93.4%
BMX (human)
  residual activity: 106%
LRRK2 (human)
  residual activity: 74.8%
AURKC (human)
  residual activity: 87%
PRKCE (human)
  residual activity: 100%
STK10 (human)
  residual activity: 96.3%
MAP3K9 (human)
  residual activity: 113%
STK25 (human)
  residual activity: 94%
CDK4 CCND1 (human)
  residual activity: 96.6%
CSK (human)
  residual activity: 87.6%
PTK2B (human)
  residual activity: 102%
MAP3K11 (human)
  residual activity: 106%
CDK4 CCND3 (human)
  residual activity: 102%
DYRK4 (human)
  residual activity: 97.5%
PASK (human)
  residual activity: 101%

## Cc1ccc(NC(=O)c2ccc(CN3CCN(C)CC3)cc2)cc1Nc1nc(-c2cccnc2)cs1
MARK1 (human)
  residual activity: 86.9%
ACVRL1 (human)
  residual activity: 103%
MAP3K3 (human)
  residual activity: 108%
LYN (human)
  residual activity: 16.2% and 18.7%
TNK2 (human)
  residual activity: 95.7%
GRK4 (human)
  residual activity: 108%
EPHA5 (human)
  residual activity: 104%
CDK1 CCNA2 (human)
  residual activity: 98%
LIMK1 (human)
  residual activity: 98.1%
IKBKE (human)
  residual activity: 97.2%
BLK (human)
  residual activity: 57.5%
STK4 (human)
  residual activity: 101%
PRKCB1 (human)
  residual activity: 101%
MARK2 (human)
  residual activity: 104%
PHKG2 (human)
  residual activity: 69.1%
TAOK1 (human)
  residual activity: 98.5%
INSR (human)
  residual activity: 99%
DAPK2 (human)
  residual activity: 104%
NEK3 (human)
  residual activity: 99.4%
STK11 (human)
  residual activity: 102%
PRKCG (human)
  residual activity: 95.8%
NEK1 (human)
  residual activity: 116%
GRK6 (human)
  residual activity: 104%
TSSK1B (human)
  residual activity: 100%
NUAK2 (human)
  residual activity: 98.4%
PAK7 (human)
  residual activity: 92%
DCLK2 (human)
  residual activity: 102%
CAMK4 (human)
  residual activity: 98.6%
BMX (human)
  residual activity: 104%
LRRK2 (human)
  residual activity: 107%
AURKC (human)
  residual activity: 112%
PRKCE (human)
  residual activity: 100%
STK10 (human)
  residual activity: 93.8%
MAP3K9 (human)
  residual activity: 104%
STK25 (human)
  residual activity: 95.5%
CDK4 CCND1 (human)
  residual activity: 94.1%
CSK (human)
  residual activity: 104%
PTK2B (human)
  residual activity: 98.9%
MAP3K11 (human)
  residual activity: 101%
CDK4 CCND3 (human)
  residual activity: 115%
DYRK4 (human)
  residual activity: 100%
PASK (human)
  residual activity: 103%
